Experiment: pH stability tests
Format: physicochemical
Procedure: This example provides the results of pH stability tests that were conducted on certain illustrative non-natural amino acids as an aid for predicting their properties for incorporation into non-natural amino acid polypeptides.

COCCOC(=O)NCCO/N=C1\C(=O)Nc2ccccc21
pH stability (pH 4.0, 1 hour): <1%
pH stability (pH 4.0, 1 day): <1%
pH stability (pH 4.0, 2 days): <1%
pH stability (pH 4.0, 3 days): <1%
pH stability (pH 4.0, 4 days): <1%
pH stability (pH 4.0, 5 days): <1%
pH stability (pH 4.0, 6 days): <1%
pH stability (pH 4.0, 7 days): <1%
pH stability (pH 4.0, 10 days): <1%
pH stability (pH 5.0, 1 hour): <1%
pH stability (pH 5.0, 1 day): <1%
pH stability (pH 5.0, 2 days): <1%
pH stability (pH 5.0, 3 days): <1%
pH stability (pH 5.0, 4 days): <1%
pH stability (pH 5.0, 5 days): <1%
pH stability (pH 5.0, 6 days): <1%
pH stability (pH 5.0, 7 days): <1%
pH stability (pH 5.0, 10 days): <1%
pH stability (pH 6.5, 1 hour): <1%
pH stability (pH 6.5, 1 day): <1%
pH stability (pH 6.5, 2 days): <1%
pH stability (pH 6.5, 3 days): <1%
pH stability (pH 6.5, 4 days): <1%
pH stability (pH 6.5, 5 days): <1%
pH stability (pH 6.5, 6 days): <1%
pH stability (pH 6.5, 7 days): <1%
pH stability (pH 6.5, 10 days): <1%
pH stability (pH 7.4, 1 hour): <1%
pH stability (pH 7.4, 1 day): <1%
pH stability (pH 7.4, 2 days): <1%
pH stability (pH 7.4, 3 days): <1%
pH stability (pH 7.4, 4 days): <1%
pH stability (pH 7.4, 5 days): <1%
pH stability (pH 7.4, 6 days): <1%
pH stability (pH 7.4, 7 days): <1%
pH stability (pH 7.4, 10 days): <1%
pH stability (pH 8.0, 1 hour): <1%
pH stability (pH 8.0, 1 day): <1%
pH stability (pH 8.0, 2 days): <1%
pH stability (pH 8.0, 3 days): <1%
pH stability (pH 8.0, 4 days): <1%
pH stability (pH 8.0, 5 days): <1%
pH stability (pH 8.0, 6 days): <1%
pH stability (pH 8.0, 7 days): <1%
pH stability (pH 8.0, 10 days): <1%

COCCOC(=O)NCCO/N=C(\C)C(=O)Nc1ccccc1 [drawing 134]
pH stability (pH 4.0, 1 hour): <1%
pH stability (pH 4.0, 1 day): <1%
pH stability (pH 4.0, 2 days): <1%
pH stability (pH 4.0, 3 days): <1%
pH stability (pH 4.0, 4 days): <1%
pH stability (pH 4.0, 5 days): <1%
pH stability (pH 4.0, 6 days): <1%
pH stability (pH 4.0, 7 days): <1%
pH stability (pH 4.0, 10 days): <1%
pH stability (pH 5.0, 1 hour): <1%
pH stability (pH 5.0, 1 day): <1%
pH stability (pH 5.0, 2 days): <1%
pH stability (pH 5.0, 3 days): <1%
pH stability (pH 5.0, 4 days): <1%
pH stability (pH 5.0, 5 days): <1%
pH stability (pH 5.0, 6 days): <1%
pH stability (pH 5.0, 7 days): <1%
pH stability (pH 5.0, 10 days): <1%
pH stability (pH 6.5, 1 hour): <1%
pH stability (pH 6.5, 1 day): <1%
pH stability (pH 6.5, 2 days): <1%
pH stability (pH 6.5, 3 days): <1%
pH stability (pH 6.5, 4 days): <1%
pH stability (pH 6.5, 5 days): <1%
pH stability (pH 6.5, 6 days): <1%
pH stability (pH 6.5, 7 days): <1%
pH stability (pH 6.5, 10 days): <1%
pH stability (pH 7.4, 1 hour): <1%
pH stability (pH 7.4, 1 day): <1%
pH stability (pH 7.4, 2 days): <1%
pH stability (pH 7.4, 3 days): <1%
pH stability (pH 7.4, 4 days): <1%
pH stability (pH 7.4, 5 days): <1%
pH stability (pH 7.4, 6 days): <1%
pH stability (pH 7.4, 7 days): <1%
pH stability (pH 7.4, 10 days): <1%
pH stability (pH 8.0, 1 hour): <1%
pH stability (pH 8.0, 1 day): <1%
pH stability (pH 8.0, 2 days): <1%
pH stability (pH 8.0, 3 days): <1%
pH stability (pH 8.0, 4 days): <1%
pH stability (pH 8.0, 5 days): <1%
pH stability (pH 8.0, 6 days): <1%
pH stability (pH 8.0, 7 days): <1%
pH stability (pH 8.0, 10 days): <1%

COCCOCNCCO/N=C(\C)CC(=O)c1ccccc1 [drawing 135]
pH stability (pH 4.0, 1 hour): <1%
pH stability (pH 4.0, 1 day): <1%
pH stability (pH 4.0, 2 days): <1%
pH stability (pH 4.0, 3 days): <1%
pH stability (pH 4.0, 4 days): <1%
pH stability (pH 4.0, 5 days): <1%
pH stability (pH 4.0, 6 days): 2%
pH stability (pH 4.0, 7 days): 2%
pH stability (pH 4.0, 10 days): 3%
pH stability (pH 5.0, 1 hour): <1%
pH stability (pH 5.0, 1 day): <1%
pH stability (pH 5.0, 2 days): <1%
pH stability (pH 5.0, 3 days): <1%
pH stability (pH 5.0, 4 days): <1%
pH stability (pH 5.0, 5 days): <1%
pH stability (pH 5.0, 6 days): <1%
pH stability (pH 5.0, 7 days): <1%
pH stability (pH 5.0, 10 days): <1%
pH stability (pH 6.5, 1 hour): <1%
pH stability (pH 6.5, 1 day): <1%
pH stability (pH 6.5, 2 days): <1%
pH stability (pH 6.5, 3 days): <1%
pH stability (pH 6.5, 4 days): <1%
pH stability (pH 6.5, 5 days): <1%
pH stability (pH 6.5, 6 days): <1%
pH stability (pH 6.5, 7 days): <1%
pH stability (pH 6.5, 10 days): <1%
pH stability (pH 7.4, 1 hour): <1%
pH stability (pH 7.4, 1 day): <1%
pH stability (pH 7.4, 2 days): <1%
pH stability (pH 7.4, 3 days): <1%
pH stability (pH 7.4, 4 days): <1%
pH stability (pH 7.4, 5 days): 3%
pH stability (pH 7.4, 6 days): 4%
pH stability (pH 7.4, 7 days): 7%
pH stability (pH 7.4, 10 days): 11%
pH stability (pH 8.0, 1 hour): <1%
pH stability (pH 8.0, 1 day): <1%
pH stability (pH 8.0, 2 days): <1%
pH stability (pH 8.0, 3 days): <1%
pH stability (pH 8.0, 4 days): <1%
pH stability (pH 8.0, 5 days): <1%
pH stability (pH 8.0, 6 days): <1%
pH stability (pH 8.0, 7 days): <1%
pH stability (pH 8.0, 10 days): <1%

Source: patent US8008456B2, “Compositions containing, methods involving, and uses of non-natural amino acids and polypeptides” (Ambrx, Inc., priority 2004, dated 2011)
